Earlier results in patent US6830755B2, “Method for relaxing human beings using personal care compositions” (Johnson & Johnson Consumer Companies, Inc., priority 1999, dated 2004).

Test system: salivary cortisol
Conditions: exposure to fragrance before stressful arithmetic

Cc1c[nH]c2ccccc12 [skatole]
effect on stress induced release of cortisol (in words): had the opposite effect
